The structures appear in SMILES notation. Like-named read-outs stand apart in the source and are kept apart here. Bounds are passed on as bounds.

Data on 25 compounds can be found in patent publication US4820834A, “Benzodiazepine analogs” (priority 1987, dated 1989).

The target in one test is T1, CCK receptor (pancreas) (Rattus norvegicus, UniProt P30551).
T1 construct: The whole pancreas was dissected free of fat tissue and was homogenized; from tissue; host or cells: rat pancreas membranes (Sprague-Dawley)
T1 sequence (P30551 1-444): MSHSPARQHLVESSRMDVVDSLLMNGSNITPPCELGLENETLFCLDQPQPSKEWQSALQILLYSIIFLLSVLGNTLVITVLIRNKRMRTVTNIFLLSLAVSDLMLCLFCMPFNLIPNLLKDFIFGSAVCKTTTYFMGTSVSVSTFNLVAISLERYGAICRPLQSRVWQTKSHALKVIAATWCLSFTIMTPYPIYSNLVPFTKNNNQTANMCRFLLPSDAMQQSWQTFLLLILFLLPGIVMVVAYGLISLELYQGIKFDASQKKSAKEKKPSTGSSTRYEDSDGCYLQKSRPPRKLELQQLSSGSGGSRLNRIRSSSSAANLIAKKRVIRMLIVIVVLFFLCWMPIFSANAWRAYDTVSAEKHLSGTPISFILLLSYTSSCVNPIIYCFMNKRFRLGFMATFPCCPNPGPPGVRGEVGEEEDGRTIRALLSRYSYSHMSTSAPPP
In words: CCK Receptor Binding (Pancreas): inhibition of ^125 I-CCK-33 binding. Details: species or system Male Sprague-Dawley rats. As to conditions: rat pancreas membranes, ^125 I-CCK-33, 37° C., 30 minutes. As for the experimental part: 1. CCK Receptor Binding (Pancreas)
CCK-33 was radiolabeled with ^125 I-Bolton Hunter reagent (2000 Ci/mmole) as described by Sankara et al. (J. Biol. Chem. 254: 9349-9351, 1979). Receptor binding was performed according to Innis and Snyder (Proc. Natl. Acad. Sci. 77: 6917-6921, 1980) with the minor modification of adding the additional protease inhibitors, phenylmethane sulfonyl fluoride and o-phenanthroline.
Male Sprague-Dawley rats (200-350 g) were sacrificed by decapitation. The whole pancreas was dissected free of fat tissue and was homogenized in 20 volumes of ice-cold 50 mM, Tris HCl (pH 7.7 at 25° C.) with a Brinkmann Polytron PT 10. The homogenates were centrifuged at 48,000 g for 10 min. Pellets were resuspended in Tris Buffer, centrifuged as above and resuspended in 200 volumes of binding assay buffer (50 mM Tris HCl, pH 7.7 at 25° C., 5 mM dithiothrietol, 0.1 mM bacitracin, 1.2 mM phenylmethane sulfonyl fluoride and 0.5 mM o-phenanthroline). […] All assays were run in duplicate or triplicate. The reaction mixtures were incubated at 37° C. for 30 minutes and centrifuged in a Beckman Microfuge (4 minutes) immediately after adding 1 ml of ice-cold incubation buffer. The supernatant was aspirated and discarded, pellets were counted with a Beckman gamma 5000. For Scatchard analysis (Ann. N.Y. Acad. Sci. 51: 660, 1949), ^125 I-CCK-33 was progressively diluted with increasing concentrations of CCK-33.

The target in test [1] is T2, CCK receptor (brain, cerebral cortex) (Cavia porcellus, UniProt H0VZC5).
T2 construct: Cerebral cortex was dissected and used as a receptor source; from tissue; host or cells: guinea pig cerebral cortex membranes (male Hartley)
T2 sequence (H0VZC5 1-426): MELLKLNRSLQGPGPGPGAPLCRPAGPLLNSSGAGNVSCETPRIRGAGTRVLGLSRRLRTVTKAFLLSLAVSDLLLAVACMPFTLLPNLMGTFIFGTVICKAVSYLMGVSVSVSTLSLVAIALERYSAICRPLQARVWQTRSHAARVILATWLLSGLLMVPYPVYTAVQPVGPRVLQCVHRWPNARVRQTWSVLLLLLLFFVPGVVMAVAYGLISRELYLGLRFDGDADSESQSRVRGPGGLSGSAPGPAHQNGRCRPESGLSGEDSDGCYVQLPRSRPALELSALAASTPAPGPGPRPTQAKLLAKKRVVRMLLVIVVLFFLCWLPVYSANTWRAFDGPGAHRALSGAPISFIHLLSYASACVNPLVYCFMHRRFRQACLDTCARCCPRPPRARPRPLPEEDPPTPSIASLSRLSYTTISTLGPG
Nature of the test: biochemical. The class given is binding, Male Hartley guinea pigs. Conditions: guinea pig cerebral cortex, ^125 I-CCK-33, 25° C., 2 hours. Put shortly:
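Binding of [radiolabeled] CCK-33 measured by gamma counting of centrifuged pellets after 2 h at 25°C. Membranes came from guinea pig brain cortex, suspended in 10 mM HEPES, 5 mM MgCl2, 1 mM EGTA, 0.25 mg/ml bacitracin, 0.4% BSA.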

Test [2] deals with T3, Gastrin receptor (gastric glands) (Cavia porcellus, UniProt H0VZC5).
T3 construct: The washed guinea pig gastric glands prepared as above were resuspended; from tissue; host or cells: guinea pig gastric mucosal glands (male Hartley)
T3 sequence (H0VZC5 1-426): T2 sequence (H0VZC5 1-426)
In words: Gastrin Receptor Binding in Guinea Pig Gastric Glands. Conditions: 25° C., 30 minutes. Details: species or system guinea pig (male Hartley).

[3] abbreviates: ^125 I-gastrin, read-out: IC50 ^125 I-Gastrin Gastric Glands.
Where [4] appears, read: read-out: IC50 ^125 I-CCK Brain.

By IC50 is commonly meant the concentration that gives 50% inhibition. With `O=C1Nc2ccccc2C(c2ccccc2F)=NC1c1ccsc1` (racemic) [Example 20, 1,3-Dihydro-5-(2-fluorophenyl)-3(RS)-(3-thienyl)-2H-1,4-benzodiazepin-2-one], the IC50 at CCK receptor (pancreas) (IC50 ^125 I-CCK Pancreas) is > 100 µM.
Still for that read-out and setting: with `O=C1Nc2ccccc2C(c2ccccc2F)=NC1Cc1c[nH]c2ccc(F)cc12` (racemic) [Example 59, 1,3-Dihydro-3(RS)-[3'-(5'-fluoroindolyl)methyl]-5-o-fluorophenyl-2H-1,4-benzpdiazepin-2-one] the figure was 1.4 µM.
As to `O=C1Nc2ccccc2C(c2ccccc2F)=N[C@@H]1Cc1c[nH]c2ccccc12` [2 & 3], the half-inhibitory concentration (IC50) on CCK receptor (pancreas) (IC50 ^125 I-CCK Pancreas) came out at 0.4 µM.
Same read-out and setting: with `CN1C(=O)[C@@H](Cc2cn(C)c3ccccc23)N=C(c2ccccc2F)c2ccccc21` [4a & 44] the figure was 0.36 µM; with `CN1C(=O)/C(=C\c2ccsc2)N=C(c2ccccc2)c2ccccc21` [95 E], 25 µM; with `CN1C(=O)/C(=C/c2ccsc2)N=C(c2ccccc2)c2ccccc21` [95 Z], 100 µM.
On the same count and under the same terms, with `Fc1ccccc1C1=N[C@H](Cc2c[nH]c3ccccc23)CNc2ccccc21` [Example 12, 1,3-Dihydro-5-(2-fluorophenyl)-3(R)-(3'-indolyl)methyl-2H-1,4-benzodiazepin] the figure was 4 µM.
In turn, `O=C1Nc2ccc(Cl)cc2C(c2ccccc2)=N[C@@H]1Cc1ccccc1` [Example 13, 7-Chloro-1,3-dihydro-3(R)-benzyl-5-phenyl-2H-1,4-benzodiazepin-2-one] showed an IC50 at CCK receptor (pancreas) (IC50 ^125 I-CCK Pancreas) of 80 µM.
On to `CC1=N[C@H](Cc2c[nH]c3ccccc23)C(=O)Nc2ccccc21` [Example 29, 1,3-Dihydro-3(R)-(3'-indolyl)methyl-5-methyl-2H-1,4-benzodiazepin-2-one], for which the IC50 at CCK receptor (pancreas) (read-out: IC50 ^125 I-CCK Pancreas) was found to be 48 µM.
Compound `O=C1Nc2ccccc2C(c2ccccc2F)=N[C@H]1Cc1c[nH]c2ccccc12` [Example 32, 1,3-Dihydro-5-(2-fluorophenyl)-3(S)-(3'-indolyl) methyl-2H-1,4-benzodiazepin-2-one] registered an IC50 at CCK receptor (pancreas) (IC50 ^125 I-CCK Pancreas) of 10.6 µM.
Regarding `O=C1[C@@H](Cc2c[nH]c3ccccc23)N=C(c2ccccc2F)c2ccccc2N1CC1CC1` [Example 37, 1-Cyclopropylmethyl-1,3-dihydro-5-(2-fluorophenyl)-3(R)-(3'-indolyl)methyl-2H-1,4-benzodiazepin-2-one], on CCK receptor (pancreas) (IC50 ^125 I-CCK Pancreas), the IC50 worked out at 2.2 µM.
As for `CCCCCN1C(=O)[C@@H](Cc2c[nH]c3ccccc23)N=C(c2ccccc2F)c2ccccc21` [Example 38, 1,3-Dihydro-5-(2-fluorophenyl)-3(R)-(3'-indolyl) methyl-1-pentyl-2H-1,4-benzodiazepin-2-one], the IC50 at CCK receptor (pancreas) (IC50 ^125 I-CCK Pancreas) is 100 µM.
`O=C1[C@@H](Cc2c[nH]c3ccccc23)N=C(c2ccccc2F)c2ccccc2N1CC(F)(F)F` [Example 40, 1,3-Dihydro-5-(2-fluorophenyl)-3(R)-(3'-indolyl)methyl-1-(2,2,2-trifluoroethyl)-2H-1,4-benzodiazepin-2-one]: the IC50 on CCK receptor (pancreas) (IC50 ^125 I-CCK Pancreas) came to 3.6 µM.
Compound `CN(C)CCN1C(=O)[C@@H](Cc2c[nH]c3ccccc23)N=C(c2ccccc2F)c2ccccc21` [Example 41, 1,3-Dihydro-1-(2-dimethylaminoethyl)-5-(2-fluorophenyl) 3(R)-(3'-indolyl)methyl-2H-1,4-benzodiazepin-2-one] had a concentration for half-maximal inhibition (IC50) on CCK receptor (pancreas) (IC50 ^125 I-CCK Pancreas) of 100 µM.
Compound `O=C(O)c1ccccc1C1=N[C@H](Cc2c[nH]c3ccccc23)C(=O)Nc2ccccc21` [Example 58, 5-o-Carboxyphenyl-1,3-dihydro-3(R)-(3+-indolyl)methyl-2H-1,4-benzodiazepin-2-one] had an IC50 on CCK receptor (pancreas) (IC50 ^125 I-CCK Pancreas) of 18 µM.
`NC(=O)CN1C(=O)[C@@H](Cc2c[nH]c3ccccc23)N=C(c2ccccc2F)c2ccccc21` [Example 123, 1-Carboxamidomethyl-1,3-dihydro-3R-(3-indolylmethyl)-5-(2-fluorophenyl)-2H-1,4-benzodiazepin-2-one] returned an IC50 on CCK receptor (pancreas) (IC50 ^125 I-CCK Pancreas) of 2.1 µM.
Take `CN1C(=O)[C@@H](NC(=O)c2ccccc2Br)N=C(c2ccccc2F)c2ccccc21` [Example 161, 3(S)-(-)-3-(2-Bromobenzoylamino)-1,3-dihydro-5-(2-fluorophenyl)-1-methyl-2H-1,4-benzodiazepin-2-one]: the IC50 is 70 µM in test [1] (IC50 ^125 I-CCK Brain) and 19 µM in test [2] (setting [3]).
As for `CN1C(=O)[C@@H](NC(=O)c2cccc(I)c2)N=C(c2ccccc2F)c2ccccc21` [Example 167, 3(S)-(+)-1,3-Dihydro-5-(2-fluorophenyl)-3-(3-iodobenzoylamino)-1-methyl-2H-1,4-benzodiazepin-2-one], the values for the concentration for half-maximal inhibition (IC50) in test [1] (setting [4]) and in test [2] (setting [3]) were 1.7 µM and 0.39 µM, respectively.
For the compound `CN1C(=O)[C@H](NC(=O)c2ccccc2Br)N=C(c2ccccc2F)c2ccccc21` [Example 171, 3(R)-(+)-3-(2-Bromobenzoylamino)-1,3-dihydro-5-(2-fluorophenyl)-1-methyl-2H-1,4-benzodiazepin-2-one], the IC50 in test [1] (IC50 ^125 I-CCK Brain) came to 5.6 µM; in test [2] (setting [3]), 5.8 µM.
On to `CCOC(=O)CN1C(=O)C(NC(=O)c2ccccc2Cl)N=C(c2ccccc2F)c2ccccc21` (stereo not drawn) [Example 188, 3-(2'-Chlorobenzoylamino)-1-ethoxycarbonylmethyl-5-(2'-fluorophenyl)-2H-1,4-benzodiazepine-2-one], for which the values for the IC50 in test [1] (IC50 ^125 I-CCK Brain) and in test [2] (IC50 ^125 I-Gastrin Gastric Glands) were 3.2 µM and 1.3 µM, respectively.
For `CN1C(=O)[C@@H](NC(=O)C=Cc2ccccc2)N=C(c2ccccc2)c2ccccc21` [Example 192, (S)-N-(2,3-Dihydro-1-methyl-2-oxo-5-phenyl-1H-1,4-benzodiazeoin-3-yl)-3-phenyl-2-propenamide], the IC50 in test [1] (setting [4]) was found to be 0.64 µM; in test [2] (setting [3]) it was 0.18 µM.
On to `CN1C(=O)[C@H](NC(=O)C2CCCCC2)N=C(c2ccccc2)c2ccccc21` [Example 198, (R)-N-(2,3-Dihydro-1-methyl-2-oxo-5-phenyl-1H-1,4-benzodiazepin-3-yl)-cyclohexanecarboxamide], for which the values for the IC50 in test [1] (setting [4]) and in test [2] (setting [3]) were 18 µM and 1.5 µM, respectively.
Take `O=C1Nc2ccccc2C(c2ccccc2)=NC1CC1CNc2ccccc21` (stereo not drawn) [Example 199, 3-((2,3-Dihydro-1H-indol-3-yl)methyl)-1,3-dihydro-5-phenyl-2H-1,4-benzodiazepin-2-one]: the IC50 on CCK receptor (pancreas) (IC50 ^125 I-CCK Pancreas) was 3.2 µM.
With `CN1C(=O)[C@@H](NC(=O)[C@@H](Cc2ccccc2)NC(=O)OC(C)(C)C)N=C(c2ccccc2F)c2ccccc21` [Example 232, (S-(R*,S*))-(2-((5-(2-Fluorophenyl)-2,3-dihydro-1-methyl-2-oxo-1H-1,4-benzodiazepin-3-yl)amino)-2-oxo-1-(phenylmethyl)ethyl)-carbamic acid 1,1-dimethylethyl ester], the IC50 was determined as 1 µM in test [1] (setting [4]) and 1.2 µM in test [2] (setting [3]).
For the compound `CN1C(=O)[C@@H](NC(=O)c2ccccc2I)N=C(c2ccccc2)c2ccccc21` [Example 283, (S)-N-(2,3-Dihydro-1-methyl-2-oxo-5-phenyl-1H-1,4-benzodiazepin-3-yl)-2-iodobenzamide], the IC50 in test [1] (setting [4]) turned out to be 71 µM; in test [2] (setting [3]), 66 µM.
